Data as given in article PMC5218480 (PLoS ONE, 2017).

Test system: MV-4-11 cells
Assay: Gene expression microarray analysis (Affymetrix PrimeView) and GSEA
Format: cell-based, human
Set-up: RFU PODN (11730768_x_at) / Fold change /veh PODN (11730768_x_at) / RFU LINC00158 (11744669_a_at) / Fold change /veh LINC00158 (11744669_a_at) / RFU DUSP10 (11751237_a_at) / Fold change /veh DUSP10 (11751237_a_at) / RFU ID3 (11757404_x_at) / Fold change /veh ID3 (11757404_x_at) / RFU PLEKHG5 (11737974_s_at) / Fold change /veh PLEKHG5 (11737974_s_at) / RFU LRRC4B (11730491_at) / Fold change /veh LRRC4B (11730491_at) / RFU GIMAP4 (11747438_a_at) / Fold change /veh GIMAP4 (11747438_a_at) / RFU KRT8 (11758183_x_at) / Fold change /veh KRT8 (11758183_x_at) / RFU CNN1 (11734310_a_at) / Fold change /veh CNN1 (11734310_a_at) / RFU VPS37D (11726825_at) / Fold change /veh VPS37D (11726825_at) / RFU C10orf10 (11716522_x_at) / Fold change /veh C10orf10 (11716522_x_at) / RFU KIR2DL2 /// KIR2DL4 /// KIR2DL5A /// KIR2DL5B /// KIR2DS1 /// KIR2DS2 /// KIR2DS3 /// KIR2DS4 /// KIR3DL3 /// KIR3DL3 /// KIR3DS1 (11738374_at) / Fold change /veh KIR2DL2 /// KIR2DL4 /// KIR2DL5A /// KIR2DL5B /// KIR2DS1 /// KIR2DS2 /// KIR2DS3 /// KIR2DS4 /// KIR3DL3 /// KIR3DL3 /// KIR3DS1 (11738374_at) / RFU C1QL1 (11718748_at) / Fold change /veh C1QL1 (11718748_at) / RFU TMPRSS4 (11747572_a_at) / Fold change /veh TMPRSS4 (11747572_a_at) / RFU HAMP (11756126_x_at) / Fold change /veh HAMP (11756126_x_at) / RFU RNFT2 (11725882_a_at) / Fold change /veh RNFT2 (11725882_a_at) / RFU NR4A2 (11747474_a_at) / Fold change /veh NR4A2 (11747474_a_at) / RFU ABCC12 (11746883_a_at) / Fold change /veh ABCC12 (11746883_a_at) / RFU TMEM136 (11760407_x_at) / Fold change /veh TMEM136 (11760407_x_at) / RFU CLDN22 /// WWC2 (11732394_at) / Fold change /veh CLDN22 /// WWC2 (11732394_at) / RFU HLA-DPB1 (11760878_x_at) / Fold change /veh HLA-DPB1 (11760878_x_at) / RFU SPINT1 (11716480_a_at) / Fold change /veh SPINT1 (11716480_a_at) / RFU GAP43 (11754022_s_at) / Fold change /veh GAP43 (11754022_s_at) / RFU A4GNT (11735810_at) / Fold change /veh A4GNT (11735810_at) / RFU PRB3 (11715151_x_at) / Fold change /veh PRB3 (11715151_x_at) / RFU TUBB4B (11761932_at) / Fold change /veh TUBB4B (11761932_at) / RFU CAPN14 (11732068_a_at) / Fold change /veh CAPN14 (11732068_a_at) / RFU TMCC2 (11721928_a_at) / Fold change /veh TMCC2 (11721928_a_at) / RFU IRGQ (11745062_a_at) / Fold change /veh IRGQ (11745062_a_at) / RFU FAM174B (11720279_a_at) / Fold change /veh FAM174B (11720279_a_at) / RFU TMPRSS4 (11748680_a_at) / Fold change /veh TMPRSS4 (11748680_a_at) / RFU FAM212B (11763350_a_at) / Fold change /veh FAM212B (11763350_a_at) / RFU PLEKHG5 (11743358_a_at) / Fold change /veh PLEKHG5 (11743358_a_at) / RFU ZSCAN30 (11745921_a_at) / Fold change /veh ZSCAN30 (11745921_a_at) / RFU CMKLR1 (11741424_a_at) / Fold change /veh CMKLR1 (11741424_a_at) / RFU LOC101060620 /// MAPK8IP1 (11723275_at) / Fold change /veh LOC101060620 /// MAPK8IP1 (11723275_at) / RFU SPTSSB (11747773_x_at) / Fold change /veh SPTSSB (11747773_x_at) / RFU PRSS12 (11739890_at) / Fold change /veh PRSS12 (11739890_at) / RFU BIN1 (11741810_x_at) / Fold change /veh BIN1 (11741810_x_at) / RFU WNT11 (11732464_a_at) / Fold change /veh WNT11 (11732464_a_at) / RFU C10orf10 (11716521_a_at) / Fold change /veh C10orf10 (11716521_a_at) / RFU C5orf56 (11738089_at) / Fold change /veh C5orf56 (11738089_at) / RFU CYB561 (11721691_x_at) / Fold change /veh CYB561 (11721691_x_at) / RFU ANKRD19P (11752326_a_at) / Fold change /veh ANKRD19P (11752326_a_at) / RFU OR2T12 /// OR2T33 /// OR2T8 (11738714_s_at) / Fold change /veh OR2T12 /// OR2T33 /// OR2T8 (11738714_s_at) / RFU VCAN (11748164_a_at) / Fold change /veh VCAN (11748164_a_at) / RFU JSRP1 (11732532_at) / Fold change /veh JSRP1 (11732532_at) / RFU KRTAP10-11 (11738290_x_at) / Fold change /veh KRTAP10-11 (11738290_x_at) / RFU MYO3A (11730013_a_at) / Fold change /veh MYO3A (11730013_a_at) / RFU EBF3 (11725865_a_at) / Fold change /veh EBF3 (11725865_a_at) / RFU CAMK2N1 (11719241_x_at) / Fold change /veh CAMK2N1 (11719241_x_at) / RFU C5orf56 (11738088_a_at) / Fold change /veh C5orf56 (11738088_a_at) / RFU OLFML3 (11715873_a_at) / Fold change /veh OLFML3 (11715873_a_at) / RFU LOC100653217 /// NTM (11731650_a_at) / Fold change /veh LOC100653217 /// NTM (11731650_a_at) / RFU MAPK11 (11762145_a_at) / Fold change /veh MAPK11 (11762145_a_at) / RFU FIZ1 (11724087_x_at) / Fold change /veh FIZ1 (11724087_x_at) / RFU OASL (11726364_x_at) / Fold change /veh OASL (11726364_x_at) / RFU SOX15 (11748057_x_at) / Fold change /veh SOX15 (11748057_x_at) / RFU CD79A (11719716_a_at) / Fold change /veh CD79A (11719716_a_at) / RFU HIST1H1D (11736915_at) / Fold change /veh HIST1H1D (11736915_at) / RFU CASKIN2 (11723855_a_at) / Fold change /veh CASKIN2 (11723855_a_at) / RFU LOC730098 (11760151_x_at) / Fold change /veh LOC730098 (11760151_x_at) / RFU OR4N2 (11742367_at) / Fold change /veh OR4N2 (11742367_at) / RFU PRRT2 (11749266_a_at) / Fold change /veh PRRT2 (11749266_a_at) / RFU SNX32 (11753110_a_at) / Fold change /veh SNX32 (11753110_a_at) / RFU CDHR5 (11726645_a_at) / Fold change /veh CDHR5 (11726645_a_at) / RFU RCAN1 (11760418_a_at) / Fold change /veh RCAN1 (11760418_a_at) / RFU FAM167A (11723789_a_at) / Fold change /veh FAM167A (11723789_a_at) / RFU FAM26E (11764081_at) / Fold change /veh FAM26E (11764081_at) / RFU ISYNA1 (11749810_s_at) / Fold change /veh ISYNA1 (11749810_s_at) / RFU ACY1 (11761880_at) / Fold change /veh ACY1 (11761880_at) / RFU 11764098_at / Fold change /veh 11764098_at / RFU SAMD14 (11745864_x_at) / Fold change /veh SAMD14 (11745864_x_at) / RFU NPB (11741838_a_at) / Fold change /veh NPB (11741838_a_at) / RFU TMPRSS6 (11731388_a_at) / Fold change /veh TMPRSS6 (11731388_a_at) / RFU KRTAP10-2 (11738614_at) / Fold change /veh KRTAP10-2 (11738614_at) / RFU ARHGAP8 /// PRR5-ARHGAP8 (11727945_x_at) / Fold change /veh ARHGAP8 /// PRR5-ARHGAP8 (11727945_x_at) / RFU KRTAP5-7 /// NADSYN1 (11734609_at) / Fold change /veh KRTAP5-7 /// NADSYN1 (11734609_at) / RFU RASL12 (11751679_a_at) / Fold change /veh RASL12 (11751679_a_at) / RFU CDKN2B (11736163_a_at) / Fold change /veh CDKN2B (11736163_a_at) / RFU PRF1 (11729649_at) / Fold change /veh PRF1 (11729649_at) / RFU, ZNF638 /// ZNF638-IT1 / Fold change vs veh, ZNF638 /// ZNF638-IT1 / RFU, PANK3 / Fold change vs veh, PANK3 / RFU, SH3YL1 / Fold change vs veh, SH3YL1 / RFU, ZEB2 / Fold change vs veh, ZEB2 / RFU, NRIP1 / Fold change vs veh, NRIP1 / RFU, PTTG1IP / Fold change vs veh, PTTG1IP / RFU, CAPN2 / Fold change vs veh, CAPN2 / RFU, MED14 / Fold change vs veh, MED14 / RFU, SNORA58 / Fold change vs veh, SNORA58 / RFU, C1orf63 / Fold change vs veh, C1orf63 / RFU, LRRFIP1 / Fold change vs veh, LRRFIP1 / RFU, NDUFAF7 / Fold change vs veh, NDUFAF7 / RFU, SLC12A2 / Fold change vs veh, SLC12A2 / RFU, IBTK / Fold change vs veh, IBTK / RFU, ESF1 / Fold change vs veh, ESF1 / Fold change vs veh, TMEM50B / RFU, TAOK1 / Fold change vs veh, TAOK1 / RFU, ACBD3 / Fold change vs veh, ACBD3 / RFU, TMA16 / Fold change vs veh, TMA16 / RFU, RWDD3 / Fold change vs veh, RWDD3 / RFU, BCAT1 / Fold change vs veh, BCAT1 / RFU, EDEM3 / Fold change vs veh, EDEM3 / RFU, TMEM33 / Fold change vs veh, TMEM33 / RFU, WDR75 / Fold change vs veh, WDR75 / RFU, AHCTF1 / Fold change vs veh, AHCTF1 / RFU, TFRC / Fold change vs veh, TFRC / RFU, ZDHHC17 / Fold change vs veh, ZDHHC17 / RFU, NOM1 / Fold change vs veh, NOM1 / RFU, ARL8B / Fold change vs veh, ARL8B / RFU, ZBTB11 / Fold change vs veh, ZBTB11 / RFU, TAMM41 / Fold change vs veh, TAMM41 / RFU, KIAA1704 /// LOC100996395 / Fold change vs veh, KIAA1704 /// LOC100996395 / RFU, ING1 / Fold change vs veh, ING1 / RFU, TRMT61B / Fold change vs veh, TRMT61B / RFU, FUBP3 / Fold change vs veh, FUBP3 / RFU, TP53 / Fold change vs veh, TP53 / RFU, TNKS2 / Fold change vs veh, TNKS2 / RFU, ZFP14 / Fold change vs veh, ZFP14 / RFU, ACTR2 / Fold change vs veh, ACTR2 / RFU, PPP3R1 / Fold change vs veh, PPP3R1 / RFU, PIK3R1 / Fold change vs veh, PIK3R1 / RFU, HNRNPA1 / Fold change vs veh, HNRNPA1 / RFU, RNF170 / Fold change vs veh, RNF170 / RFU, ZNF28 / Fold change vs veh, ZNF28 / RFU, RNGTT / Fold change vs veh, RNGTT / RFU, OGT / Fold change vs veh, OGT / RFU, BRD1 / Fold change vs veh, BRD1 / RFU, MARS / Fold change vs veh, MARS / RFU, ZNF655 / Fold change vs veh, ZNF655 / RFU, FAHD1 / Fold change vs veh, FAHD1 / RFU, BDP1 / Fold change vs veh, BDP1 / RFU, LRRCC1 / Fold change vs veh, LRRCC1 / RFU, ARID1A / Fold change vs veh, ARID1A / RFU, ZNF146 / Fold change vs veh, ZNF146 / RFU, ZNF330 / Fold change vs veh, ZNF330 / RFU, GPN3 / Fold change vs veh, GPN3 / RFU, C9orf123 / Fold change vs veh, C9orf123 / RFU, N4BP2L2 / Fold change vs veh, N4BP2L2 / RFU, ARFIP1 / Fold change vs veh, ARFIP1 / RFU, FAM179B / Fold change vs veh, FAM179B / RFU, BCL10 / Fold change vs veh, BCL10 / RFU, UHRF1BP1L / Fold change vs veh, UHRF1BP1L / RFU, BET1 / Fold change vs veh, BET1 / RFU, CNOT2 / Fold change vs veh, CNOT2 / RFU, ZNF268 / Fold change vs veh, ZNF268 / Fold change vs veh, ZNF507 / RFU, DGCR2 / Fold change vs veh, DGCR2 / RFU, WDSUB1 / Fold change vs veh, WDSUB1 / Fold change vs veh, HSP90B1 /// MIR3652 / RFU, ADSS / Fold change vs veh, ADSS / RFU, GK / Fold change vs veh, GK / RFU, ZNF148 / Fold change vs veh, ZNF148 / RFU, TAF9 / Fold change vs veh, TAF9 / RFU, SLC1A5 / Fold change vs veh, SLC1A5 / RFU, SLMO2 / Fold change vs veh, SLMO2 / RFU, ABCC4 / Fold change vs veh, ABCC4 / RFU, LOC101060439 /// RAP1B / Fold change vs veh, LOC101060439 /// RAP1B / RFU, RFX7 / Fold change vs veh, RFX7 / RFU, GTPBP10 / Fold change vs veh, GTPBP10 / RFU, CNEP1R1 / Fold change vs veh, CNEP1R1 / RFU, BIVM-ERCC5 /// ERCC5 / Fold change vs veh, BIVM-ERCC5 /// ERCC5 / RFU, ILF3 / Fold change vs veh, ILF3 / RFU 11762660_at / Fold change /veh 11762660_at / RFU VCAN (11757783_s_at) / Fold change /veh VCAN (11757783_s_at) / RFU DDX43 (11728927_at) / Fold change /veh DDX43 (11728927_at) / RFU KRT8 (11758188_x_at) / Fold change /veh KRT8 (11758188_x_at) / RFU NKD1 (11759106_at) / Fold change /veh NKD1 (11759106_at) / RFU SRD5A1 (11742802_a_at) / Fold change /veh SRD5A1 (11742802_a_at) / RFU TPSAB1 /// TPSB2 (11721975_s_at) / Fold change /veh TPSAB1 /// TPSB2 (11721975_s_at) / RFU GSTM3 (11746129_a_at) / Fold change /veh GSTM3 (11746129_a_at) / RFU IL23R (11737362_x_at) / Fold change /veh IL23R (11737362_x_at) / RFU TMEM51 (11727254_a_at) / Fold change /veh TMEM51 (11727254_a_at) / RFU PIWIL2 (11732686_x_at) / Fold change /veh PIWIL2 (11732686_x_at) / RFU ORM1 (11744905_x_at) / Fold change /veh ORM1 (11744905_x_at) / RFU CCDC152 (11743942_at) / Fold change /veh CCDC152 (11743942_at) / RFU ECM1 (11717891_a_at) / Fold change /veh ECM1 (11717891_a_at) / RFU IL23R (11748794_a_at) / Fold change /veh IL23R (11748794_a_at) / RFU TNFAIP8L3 (11732012_x_at) / Fold change /veh TNFAIP8L3 (11732012_x_at) / RFU MBOAT4 (11741988_at) / Fold change /veh MBOAT4 (11741988_at) / RFU 11764193_at / Fold change /veh 11764193_at / RFU TMEM53 (11763286_at) / Fold change /veh TMEM53 (11763286_at) / RFU MAGEB2 (11727129_at) / Fold change /veh MAGEB2 (11727129_at) / RFU TMEM200A (11744735_a_at) / Fold change /veh TMEM200A (11744735_a_at) / RFU CCDC152 (11751479_a_at) / Fold change /veh CCDC152 (11751479_a_at) / RFU FAM211A (11726209_a_at) / Fold change /veh FAM211A (11726209_a_at) / RFU RGS16 (11746705_a_at) / Fold change /veh RGS16 (11746705_a_at) / RFU VCAN (11755009_s_at) / Fold change /veh VCAN (11755009_s_at) / RFU RHOB (11743442_s_at) / Fold change /veh RHOB (11743442_s_at) / RFU RGS16 (11720943_a_at) / Fold change /veh RGS16 (11720943_a_at) / RFU RGS16 (11720944_at) / Fold change /veh RGS16 (11720944_at) / RFU, VPS4B / Fold change vs veh, VPS4B / RFU, CREB1 / Fold change vs veh, CREB1 / RFU, DNAJC13 / Fold change vs veh, DNAJC13 / RFU, GNAQ / Fold change vs veh, GNAQ / RFU, CDK5R1 / Fold change vs veh, CDK5R1 / RFU, ZRANB3 / Fold change vs veh, ZRANB3 / RFU, CUL4A / Fold change vs veh, CUL4A / RFU, CCNY / Fold change vs veh, CCNY / RFU, UFL1 / Fold change vs veh, UFL1 / RFU, COG3 / Fold change vs veh, COG3 / RFU, DIAPH2 / Fold change vs veh, DIAPH2 / RFU, SKA2 / Fold change vs veh, SKA2 / RFU, AFF3 / Fold change vs veh, AFF3 / RFU, LMF1 / Fold change vs veh, LMF1 / RFU, IPO11 / Fold change vs veh, IPO11 / RFU, DFFB / Fold change vs veh, DFFB / RFU, FOXP1 / Fold change vs veh, FOXP1 / RFU, CARD8 / Fold change vs veh, CARD8 / RFU, STRN3 / Fold change vs veh, STRN3 / RFU, ADK / Fold change vs veh, ADK / RFU, RASSF2 / Fold change vs veh, RASSF2 / RFU, WIPF1 / Fold change vs veh, WIPF1 / RFU, LARP1B / Fold change vs veh, LARP1B / RFU, RASA1 / Fold change vs veh, RASA1 / RFU, RB1 / Fold change vs veh, RB1 / RFU, PPFIA1 / Fold change vs veh, PPFIA1 / RFU, MAT2A / Fold change vs veh, MAT2A / RFU, CCT5 / Fold change vs veh, CCT5 / RFU, WDR92 / Fold change vs veh, WDR92 / RFU, CUX1 / Fold change vs veh, CUX1 / RFU, TTC7A / Fold change vs veh, TTC7A / RFU, TMEM135 / Fold change vs veh, TMEM135 / RFU, DEPTOR / Fold change vs veh, DEPTOR / RFU, CPM / Fold change vs veh, CPM / RFU, DNAJB6 / Fold change vs veh, DNAJB6 / RFU, CACNA2D3 / Fold change vs veh, CACNA2D3 / RFU, DTX4 / Fold change vs veh, DTX4 / RFU, TFCP2 / Fold change vs veh, TFCP2 / RFU, GMCL1 /// GMCL1P1 / Fold change vs veh, GMCL1 /// GMCL1P1 / RFU, AEBP2 / Fold change vs veh, AEBP2 / RFU, SNHG1 /// SNORD22 /// SNORD25 /// SNORD26 /// SNORD27 /// SNORD28 /// SNORD29 /// SNORD31 / Fold change vs veh, SNHG1 /// SNORD22 /// SNORD25 /// SNORD26 /// SNORD27 /// SNORD28 /// SNORD29 /// SNORD31 / Fold change (Aza/veh), C12orf56 (ProbeSet 11735607_a_at) / Fold change (ACY-1035/veh), C12orf56 (ProbeSet 11735607_a_at) / Fold change (Aza/veh), FGFR1OP (ProbeSet 11751329_s_at) / Fold change (ACY-1035/veh), FGFR1OP (ProbeSet 11751329_s_at) / Fold change (Aza/veh), VPS36 (ProbeSet 11739960_a_at) / Fold change (ACY-1035/veh), VPS36 (ProbeSet 11739960_a_at) / RFU SYPL1 (11715823_x_at) / Fold change /veh SYPL1 (11715823_x_at) / RFU IGFBP7 (11715501_s_at) / Fold change /veh IGFBP7 (11715501_s_at) / RFU REEP3 (11722064_at) / Fold change /veh REEP3 (11722064_at) / RFU IGLL1 (11728026_x_at) / Fold change /veh IGLL1 (11728026_x_at): dose or concentration left out as unconfirmed
Details: ProbeSet 11732281_s_at; LIST D

With `Nc1ncn([C@@H]2O[C@H](CO)[C@@H](O)[C@H]2O)c(=O)n1` [azacitidine] the “RFU, FOXP1” value was 174.32 RFU.
